Legend:
Type in all cases: in vivo
Conditions in all cases: 250 g/h, evaluated after 13 days
Setaria faberi (SETFA) [1] = experiment: Post-emergence herbicidal glasshouse test, percentage damage
Method in brief: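 Percentage damage was scored 13 days after treatment on a five-point scale (1=0-19% to 5=80-100%). Treatments were post-emergence sprays on 8-day-old wheat, barley and SETFA plants in a glasshouse (24/16 °C day/night, 14 h light, 65% humidity), using acetone/water 50:50 with 0.5% Tween 20 at the stated rates. Wheat additionally received cloquintocet-mexyl safener at 50 g/ha.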

Setaria faberi (SETFA) [2] = experiment: Pre-emergence herbicidal glasshouse test, percentage damage
Method in brief: (§1)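 Glasshouse, 24/16 °C, 14 h photoperiod, 65% humidity. Sprayed at 250 g/h pre- (1 d) or post-emergence (8 d); evaluated 13 d after spraying, 5-point damage scale.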

Avena fatua (AVEFA) [3] = experiment: as above
Method in brief: as §1

[4] = system: Alopecurus myosuroides (ALOMY); experiment: as above
Method in brief: as §1

Lolium perenne (LOLPE) [5] = experiment: as above
Method in brief: as §1

[6] = system: Echinochloa crus-galli (ECHCG); experiment: as above
Method in brief: as §1

Avena fatua (AVEFA) [7] = experiment: Post-emergence herbicidal glasshouse test, percentage damage
Method in brief: as §1

[8] = system: Alopecurus myosuroides (ALOMY); experiment: as above
Method in brief: as §1

Lolium perenne (LOLPE) [9] = experiment: as above
Method in brief: as §1

[10] = system: Echinochloa crus-galli (ECHCG); experiment: as above
Method in brief: as §1

## CC#Cc1cc(C)c(C2C(=O)CC3(CCN(C(=O)Cc4ccncn4)CC3)CC2=O)c(C)c1 [Compound A101]
Setaria faberi (SETFA) [1]
  SETFA POST percentage damage (five point scale): 5 (5=80-100%)
Setaria faberi (SETFA) [2]
  SETFA PRE percentage damage (five point scale): 5 (5=80-100%)
Avena fatua (AVEFA) [3]
  AVEFA PRE percentage damage (five point scale): 4 (4=60-79%)
[4]
  ALOMY PRE percentage damage (five point scale): 4 (4=60-79%)
Lolium perenne (LOLPE) [5]
  LOLPE PRE percentage damage (five point scale): 5 (5=80-100%)
[6]
  ECHCG PRE percentage damage (five point scale): 5 (5=80-100%)
Avena fatua (AVEFA) [7]
  AVEFA POST percentage damage (five point scale): 5 (5=80-100%)
[8]
  ALOMY POST percentage damage (five point scale): 5 (5=80-100%)
Lolium perenne (LOLPE) [9]
  LOLPE POST percentage damage (five point scale): 5 (5=80-100%)
[10]
  ECHCG POST percentage damage (five point scale): 5 (5=80-100%)

## CC#Cc1cc(C)c(C2C(=O)CC3(CCN(C(=O)Cc4ccncc4)CC3)CC2=O)c(C)c1 [Compound A100]
Setaria faberi (SETFA) [1]
  SETFA POST percentage damage (five point scale): 5 (5=80-100%)
Setaria faberi (SETFA) [2]
  SETFA PRE percentage damage (five point scale): 5 (5=80-100%)
Avena fatua (AVEFA) [3]
  AVEFA PRE percentage damage (five point scale): 3 (3=40-59%)
[4]
  ALOMY PRE percentage damage (five point scale): 3 (3=40-59%)
Lolium perenne (LOLPE) [5]
  LOLPE PRE percentage damage (five point scale): 5 (5=80-100%)
[6]
  ECHCG PRE percentage damage (five point scale): 5 (5=80-100%)
Avena fatua (AVEFA) [7]
  AVEFA POST percentage damage (five point scale): 5 (5=80-100%)
[8]
  ALOMY POST percentage damage (five point scale): 4 (4=60-79%)
Lolium perenne (LOLPE) [9]
  LOLPE POST percentage damage (five point scale): 5 (5=80-100%)
[10]
  ECHCG POST percentage damage (five point scale): 5 (5=80-100%)

## CC#Cc1cc(C)c(C2C(=O)CC3(CCN(C(=O)[C@H](C)O)CC3)CC2=O)c(C)c1 [Compound A155]
Setaria faberi (SETFA) [1]
  SETFA POST percentage damage (five point scale): 5 (5=80-100%)
Setaria faberi (SETFA) [2]
  SETFA PRE percentage damage (five point scale): 5 (5=80-100%)
Avena fatua (AVEFA) [3]
  AVEFA PRE percentage damage (five point scale): 5 (5=80-100%)
[4]
  ALOMY PRE percentage damage (five point scale): 5 (5=80-100%)
Lolium perenne (LOLPE) [5]
  LOLPE PRE percentage damage (five point scale): 5 (5=80-100%)
[6]
  ECHCG PRE percentage damage (five point scale): 5 (5=80-100%)
Avena fatua (AVEFA) [7]
  AVEFA POST percentage damage (five point scale): 5 (5=80-100%)
[8]
  ALOMY POST percentage damage (five point scale): 5 (5=80-100%)
Lolium perenne (LOLPE) [9]
  LOLPE POST percentage damage (five point scale): 5 (5=80-100%)
[10]
  ECHCG POST percentage damage (five point scale): 5 (5=80-100%)

## CC#Cc1cc(C)c(C2=C(OC(=O)OC)CC3(CCN(C(=O)NC(=O)C(C)(C)C)CC3)CC2=O)c(C)c1 [Compound P10]
Setaria faberi (SETFA) [1]
  SETFA POST percentage damage (five point scale): 5 (5=80-100%)
Setaria faberi (SETFA) [2]
  SETFA PRE percentage damage (five point scale): 5 (5=80-100%)
Avena fatua (AVEFA) [3]
  AVEFA PRE percentage damage (five point scale): 5 (5=80-100%)
[4]
  ALOMY PRE percentage damage (five point scale): 5 (5=80-100%)
Lolium perenne (LOLPE) [5]
  LOLPE PRE percentage damage (five point scale): 5 (5=80-100%)
[6]
  ECHCG PRE percentage damage (five point scale): 5 (5=80-100%)
Avena fatua (AVEFA) [7]
  AVEFA POST percentage damage (five point scale): 5 (5=80-100%)
[8]
  ALOMY POST percentage damage (five point scale): 5 (5=80-100%)
Lolium perenne (LOLPE) [9]
  LOLPE POST percentage damage (five point scale): 5 (5=80-100%)
[10]
  ECHCG POST percentage damage (five point scale): 5 (5=80-100%)

## CC#Cc1cc(C)c(C2C(=O)CC3(CCN(C(=O)COC4CC4)CC3)CC2=O)c(C)c1 [Compound A202]
Setaria faberi (SETFA) [1]
  SETFA POST percentage damage (five point scale): 5 (5=80-100%)
Setaria faberi (SETFA) [2]
  SETFA PRE percentage damage (five point scale): 5 (5=80-100%)
Avena fatua (AVEFA) [3]
  AVEFA PRE percentage damage (five point scale): 5 (5=80-100%)
[4]
  ALOMY PRE percentage damage (five point scale): 5 (5=80-100%)
Lolium perenne (LOLPE) [5]
  LOLPE PRE percentage damage (five point scale): 5 (5=80-100%)
[6]
  ECHCG PRE percentage damage (five point scale): 5 (5=80-100%)
Avena fatua (AVEFA) [7]
  AVEFA POST percentage damage (five point scale): 5 (5=80-100%)
[8]
  ALOMY POST percentage damage (five point scale): 5 (5=80-100%)
Lolium perenne (LOLPE) [9]
  LOLPE POST percentage damage (five point scale): 5 (5=80-100%)
[10]
  ECHCG POST percentage damage (five point scale): 5 (5=80-100%)

## CC#Cc1cc(C)c(C2C(=O)CC3(CCN(C(=O)CCOCC)CC3)CC2=O)c(C)c1 [Compound A172]
Setaria faberi (SETFA) [1]
  SETFA POST percentage damage (five point scale): 5 (5=80-100%)
Setaria faberi (SETFA) [2]
  SETFA PRE percentage damage (five point scale): 5 (5=80-100%)
Avena fatua (AVEFA) [3]
  AVEFA PRE percentage damage (five point scale): 5 (5=80-100%)
[4]
  ALOMY PRE percentage damage (five point scale): 5 (5=80-100%)
Lolium perenne (LOLPE) [5]
  LOLPE PRE percentage damage (five point scale): 5 (5=80-100%)
[6]
  ECHCG PRE percentage damage (five point scale): 5 (5=80-100%)
Avena fatua (AVEFA) [7]
  AVEFA POST percentage damage (five point scale): 5 (5=80-100%)
[8]
  ALOMY POST percentage damage (five point scale): 5 (5=80-100%)
Lolium perenne (LOLPE) [9]
  LOLPE POST percentage damage (five point scale): 5 (5=80-100%)
[10]
  ECHCG POST percentage damage (five point scale): 5 (5=80-100%)

From US12043599B2, “Herbicidal compounds” (SYNGENTA PARTICIPATIONS AG, priority 2018, dated 2024)
